Consider 22 compounds from patent US4301313A, “Halogenated ethynyl biphenyls” (Eli-Lilly and Company, priority 1974, dated 1981).

Experiment [1] in a line: ultraviolet-induced erythema blocking test, oral (modified Winder method). The experiment is classed as in vivo, guinea pig (male albino). The note with it: Cavia porcellus, guinea pig, weighted scores 1.0-2.5 h after UV, dose which provides 50% inhibition. Here is the method: The compounds of the present invention were evaluated for anti-inflammatoryactivity by the ultraviolet-induced erythema blocking test. The test procedures were a modification of the Winder method (Winder, C. V.; Wax, J.; Burr, V.; Been, M.; and Posiere, C. E.: A Study of Pharmacological Influences on Ultraviolet Erythema in Guinea Pigs. Arch. Int. Pharmacodyn. 116: 261, 1958). Male albino guinea pigs weighing 240-300 gm. were used. The hair on the back was clipped and chemically depilated 15-18 hours before each experiment. The animals were fasted overnight, and on the day of the experiment, were randomized and placed in clear plastic partitioned holders 10×20 cm. wide and 15 cm. high.
The compounds to be tested were suspended in 1% methyl cellulose in water, utilizing a tissue homogenizer. The suspensions were administered orally in a volume of 2.0 ml./kg. of body weight. Control animals received an equal amount of the vehicle.
The source of ultraviolet light was a Hanovia lamp (Kromayer-Model 10). A notebook reinforcement ring was placed upon the lens of the lamp to provide an area of contrast for grading purposes. The lens was then placed in contact with the skin of the guinea pig's back. Exposure time to UV was for a period of 4 seconds. Beginning one hour after exposure and thereafter at half-hour intervals for another 11/2 hours, the degree of resulting erythema was graded by an arbitrary scoring system based upon the degree of contrast and redness formed. Anti-inflammatory agents delay the development of the erythema and have their greatest effect at the initial grading periods. The scores were, therefore, weighted by factors of 4, 3, 2, and 1 at the 1.0, 1.5, 2.0, and 2.5 hour scoring times, respectively. The erythema was graded as follows:
Total scores from each treatment group of four guinea pigs were compared to the scores of the control group. The percent inhibition was calculated as follows: [formula] In the case of compounds showing inhibition, retesting was carried out at a plurality of doses to enable calculation of an ED50 for each such compound. "ED50 " designates that dose which provides 50% inhibition. Calculation of the ED50 was either by a standard linear regression method or by estimation from a dose-response curve of three or more points. The compounds so tested and their ED50 s were as follows: […]

A short description of experiment [2]: carrageenin-induced hind paw inflammation. The experiment is classed as in vivo. The note with it: Rattus norvegicus. Here is the method: Representative compounds were also evaluated for anti-inflammatory activity in the test method described by C. A. Winter at 111 Proc. Soc. Exp. Biol. Med., 544 (1962). In this method, inflammation is created by injecting carrageenin into the hind paw of rats. Test compounds are administered prior to injection to determine percent inhibition of the subsequent inflammation, in comparison with control animals.
A general note: In the carrageenan paw model, swelling and tenderness develop within hours.

A short description of experiment [3]: analgesic activity, acetic acid-induced writhing. The experiment is classed as in vivo, mouse (albino male). The note with it: mouse, p.o., dose reducing writhing frequency by 50%; 30, 90, 180 minutes after administration. Here is the method: Representative compounds were also evaluated for analgesic activity. The evaluation was conducted by using acetic acid-induced writhing in mice as the pain model. Clinically effective analgesis are effective when tested in this model: see Koster et al., "Acetic Acid for Analgesic Screening," 18 Fed. Proc. 412 (1959).
In a method similar to that reported by Koster et al., standard strain albino male mice weighing 20-22 grams were fasted overnight. The respective compound or vehicle (as control) was administered by gastric lavage (p.o.). Each compound was administered in an aqueous suspension of 1% methylcellulose in water. […] At 30, 90, and 180 minutes after administration, writhing was induced by the intraperitoneal administration of 55 mg./kg. of acetic acid (0.55%). Each treatment group consisted of 5 mice and separate groups were examined at each observation time. The total number of writhes for the treatment group were counted in a 10-minute observation period starting 5 minutes after the acetic acid administration. The treatment totals were compared to controls and a percent inhibition calculated as follows: [formula] […] An ED50, which represented the dose that would reduce the writhing frequency by 50%, was estimated from a dose-reponse curve of three or more points. A dose range was reported if only two points were availale for the dose response curve and they bracketed the 50% level. If data was available at 100 mg./kg., only, then the estimated ED50 was reported simply as less than 100 (<100).
A general note: In writhing tests, fewer writhes than in controls are read as antinociception.

Experiment [4] can be described thus: adjuvant-induced arthritis test (paw volume). The experiment is classed as in vivo, rat (male albino). The note with it: rat, oral, dose 25 (unit not given).

For the compound `C#Cc1cccc(-c2ccccc2)c1` [3-biphenylylacetylene, 3-Biphenylylacetylene], the ED50 (in general, the dose at which the effect has come halfway, by size or by number of responders) in experiment [1] was 7 mg/kg. The inhibition in vivo (usually how much of the control response was suppressed) at 50 mg/kg in experiment [2] was 32%. Moreover, in experiment [3], the “Estimated ED50” value is 50 to 100 mg/kg.

As to `C#Cc1ccc(-c2ccccc2)cc1OC` [(2-methoxy-4-phenylphenyl)acetylene, (2-Methoxy-4-phenylphenyl)acetylene], it took a dose of 39 mg/kg to reach the 50% effect level in experiment [1] (ED50). Also, in experiment [2] (1 mg./kg.), at 1 mg/kg the inhibition in vivo was 25%. For the same compound, in experiment [2], the inhibition in vivo at 10 mg/kg is 7% and the inhibition in vivo at 50 mg/kg turned out to be 51%.

In experiment [1], `C#Cc1ccc(OCCCC)cc1C` [(2-methyl-4-n-butoxyphenyl)acetylene, (2-Methyl-4-n-butoxyphenyl)acetylene] came in with an ED50 of 35 mg/kg. This compound showed an inhibition in vivo at 25 mg/kg in experiment [2] of 9%.

In experiment [1], `C#Cc1ccc(Oc2ccccc2)cc1C` [(2-methyl-4-phenoxyphenyl)acetylene, (2-Methyl-4-phenoxyphenyl)acetylene] returned an ED50 of 8 mg/kg. In experiment [2], the inhibition in vivo at 25 mg/kg amounted to 33%. The “Estimated ED50” value in experiment [3] is less than 100 mg/kg.

`C#Cc1ccc(-c2ccccc2)cc1C` [(2-methyl-4-phenylphenyl)acetylene] returned an ED50 in experiment [1] of 20 mg/kg. In experiment [3], the “Estimated ED50” value was 60 mg/kg.

In experiment [1], `C#Cc1cc(C)c(Oc2ccccc2)c(C)c1` [(3,5-dimethyl-4-phenoxyphenyl)acetylene, (3,5-Dimethyl-4-phenoxyphenyl)acetylene] showed a 50% effective dose (ED50) of 11 mg/kg. The compound further came in with an inhibition in vivo at 50 mg/kg in experiment [2] of 29%. In experiment [3], the “Estimated ED50” value was less than 100 mg/kg.

`C#Cc1cccc(Oc2ccccc2F)c1` [(3-(2-fluorophenoxy)phenyl)acetylene, (3-(2-Fluorophenoxy)phenyl)acetylene]: the ED50 in experiment [1] is 12 mg/kg. For the same compound, the inhibition in vivo at 50 mg/kg in experiment [2] worked out at 32%.

Take `C#Cc1ccc(C2CCCCC2)c(Cl)c1` [(3-chloro-4-cyclohexylphenyl)acetylene, (3-Chloro-4-cyclohexylphenyl)acetylene]: the 50% effect level in experiment [1] (ED50) was put at a dose of 1 mg/kg. Moreover, the “Estimated ED50” value in experiment [3] is less than 100 mg/kg.

In experiment [1], `C#Cc1ccc(-c2ccccc2)c(F)c1` [(3-fluoro-4-phenylphenyl)acetylene, (3-Fluoro-4-phenylphenyl)acetylene] came in with an ED50 of 0.5 mg/kg. The “Estimated ED50” value in experiment [3] is 10 mg/kg.

The compound `C#Cc1ccc(-c2ccccc2)c(OC)c1` [(3-methoxy-4-phenylphenyl)acetylene, (3-Methoxy-4-phenylphenyl)acetylene] registered an ED50 in experiment [1] of 0.6 mg/kg.

Consider `C#Cc1ccc(Oc2ccccc2)c(C)c1` [(3-methyl-4-phenoxyphenyl)acetylene, (3-Methyl-4-phenoxyphenyl)acetylene], for which it took a dose of 10 mg/kg to reach the 50% effect level in experiment [1] (ED50). For the same compound, testing at 10 mg/kg in experiment [2] gave an inhibition in vivo of 16%. Also, the “Estimated ED50” value in experiment [3] is less than 100 mg/kg.

In turn, `C#Cc1ccc(-c2ccccc2)c(C)c1` [(3-methyl-4-phenylphenyl)acetylene, (3-Methyl-4-phenylphenyl)acetylene] registered a median effective dose (ED50) in experiment [1] of 0.09 mg/kg. In experiment [2], this compound returned an inhibition in vivo at 3 mg/kg of 37%, an inhibition in vivo at 10 mg/kg of 56%, an inhibition in vivo at 30 mg/kg of 56% and an inhibition in vivo at 50 mg/kg of 66%. In addition, the “Estimated ED50” value in experiment [3] is 50 mg/kg.

On to `C#Cc1cccc(Oc2ccccc2)c1` [(3-phenoxyphenyl)acetylene, (3-Phenoxyphenyl)acetylene], for which the ED50 in experiment [1] was determined as 13 mg/kg. In experiment [2], this compound returned an inhibition in vivo at 10 mg/kg of 7%. Moreover, the “Estimated ED50” value in experiment [3] was less than 100 mg/kg.

In experiment [1], `C#Cc1ccc(-c2ccc(F)cc2F)cc1` [(4-(2,4-difluorophenyl)phenyl)acetylene, (4-(2,4-Difluorophenyl)phenyl)acetylene] registered an ED50 of 4 mg/kg. Further, the inhibition in vivo at 25 mg/kg in experiment [2] stood at 31%. In addition, the “Estimated ED50” value in experiment [3] was 4 mg/kg.

In turn, `C#Cc1ccc(-c2cc(F)ccc2F)cc1` [(4-(2,5-difluorophenyl)phenyl)acetylene, (4-(2,5-Difluorophenyl)phenyl)acetylene] had an ED50 in experiment [1] of 4.4 mg/kg. The compound also displayed an inhibition in vivo at 25 mg/kg in experiment [2] of 43%. Besides, the “Estimated ED50” value in experiment [3] was 10 mg/kg.

Turning to `C#Cc1ccc(-c2c(F)cccc2F)cc1` [(4-(2,6-difluorophenyl)phenyl)acetylene, (4-(2,6-Difluorophenyl)phenyl)acetylene], in experiment [1], the ED50 is 12 mg/kg. In experiment [2], this compound had an inhibition in vivo at 3 mg/kg of 7%, an inhibition in vivo at 10 mg/kg of 34%, an inhibition in vivo at 30 mg/kg of 37% and an inhibition in vivo at 50 mg/kg of 49%. Also, the “Estimated ED50” value in experiment [3] is less than 100 mg/kg.

`C#Cc1ccc(-c2ccccc2Cl)cc1` [(4-(2-chlorophenyl)phenyl)acetylene, (4-(2-Chlorophenyl)phenyl)acetylene]: the ED50 in experiment [1] came to 0.8 mg/kg. The same compound displayed an inhibition in vivo at 50 mg/kg in experiment [2] of 52%. Besides, the “Estimated ED50” value in experiment [3] was 20 to 100 mg/kg.

For `C#Cc1ccc(Oc2ccccc2F)cc1` [(4-(2-fluorophenoxy)phenyl)acetylene, (4-(2-Fluorophenoxy)phenyl)acetylene], in experiment [1], the 50% effect level (ED50) was put at a dose of 16.5 mg/kg. Further, in experiment [2], the inhibition in vivo at 3 mg/kg came to 28%, 10 mg/kg produced 45% inhibition in vivo and testing at 30 mg/kg gave an inhibition in vivo of 68%. In addition, the “Estimated ED50” value in experiment [3] is less than 100 mg/kg.

Take `C#Cc1ccc(-c2cccc(F)c2)cc1` [(4-(3-fluorophenyl)phenyl)acetylene, (4-(3-Fluorophenyl)phenyl)acetylene]: the 50% effect level in experiment [1] (ED50) was put at a dose of 3 mg/kg. For the same compound, testing at 10 mg/kg in experiment [2] gave an inhibition in vivo of 17%. The “Estimated ED50” value in experiment [3] is 35 mg/kg.

On to `C#Cc1ccc(-c2ccccc2C)cc1` [(4-(o-tolyl)phenyl)acetylene, (4-(o-Tolyl)phenyl)acetylene], for which, in experiment [1], the ED50 was found to be 0.9 mg/kg. Also, in experiment [2], testing at 3 mg/kg gave an inhibition in vivo of 16%, at 10 mg/kg the inhibition in vivo was 6%, the inhibition in vivo at 30 mg/kg was 53% and the inhibition in vivo at 50 mg/kg worked out at 48%. Further, the “Estimated ED50” value in experiment [3] is 35 mg/kg.

With `C#Cc1ccc(F)c(-c2ccccc2F)c1` [(4-Fluoro-3-(2-fluorophenyl)phenyl)acetylene], the ED50 in experiment [1] was 23 mg/kg. In experiment [2], this compound returned an inhibition in vivo at 3 mg/kg of 13%, an inhibition in vivo at 10 mg/kg of 23%, an inhibition in vivo at 30 mg/kg of 43% and an inhibition in vivo at 50 mg/kg of 45%.

(2-(2,5-difluorophenyl)phenyl)acetylene: the “Percent Inhibition of Volume Increase, Day 7” value in experiment [4] (Day 7) amounted to 38%. In experiment [4] (Day 14), the “Percent Inhibition of Volume Increase, Day 14” value was determined as 15%.
